Experiment [1] can be described thus: DRUGMATRIX: Serotonin (5-Hydroxytryptamine) 5-HT3 radioligand binding (ligand: [3H] GR-65630). Format: cell membranes, Membrane. The settings on record: hek293; Not Active = under 50% inhibition at 10 µM.
A short description of experiment [2]: DRUGMATRIX: Nicotinic Acetylcholine radioligand binding (ligand: [125I] Epibatidine). Format: cell membranes, Membrane. The conditions noted are these: imr-32; Not Active = under 50% inhibition at 10 µM.
In another experiment the target is T1, Endothelin-1 receptor (Homo sapiens, UniProt P25101). Further: in other assays of this panel Not Active means under 50% inhibition at 10 µM.
T1 sequence (P25101 whole entry): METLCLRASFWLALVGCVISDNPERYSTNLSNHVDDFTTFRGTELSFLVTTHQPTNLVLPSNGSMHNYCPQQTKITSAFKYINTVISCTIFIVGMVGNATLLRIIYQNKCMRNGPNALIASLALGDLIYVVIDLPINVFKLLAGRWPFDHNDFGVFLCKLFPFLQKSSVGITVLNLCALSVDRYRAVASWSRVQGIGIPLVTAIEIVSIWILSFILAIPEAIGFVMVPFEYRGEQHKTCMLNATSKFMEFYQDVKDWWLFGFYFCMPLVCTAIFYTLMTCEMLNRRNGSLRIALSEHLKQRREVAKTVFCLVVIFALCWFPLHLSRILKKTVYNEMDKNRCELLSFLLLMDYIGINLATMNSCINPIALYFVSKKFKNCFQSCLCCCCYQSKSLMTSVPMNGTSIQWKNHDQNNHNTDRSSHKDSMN
Format: cell membranes, CHO-K1, Membrane. The settings on record: cho-k1.

A short description of experiment [3]: DRUGMATRIX: beta-Lactamase enzyme inhibition (substrate: Nitrocefin). Details: species or system Bacillus cereus. The settings on record: Not Active = under 50% inhibition at 10 µM.
For experiment [4], the target named is T2, 3-hydroxy-3-methylglutaryl-coenzyme A reductase (Homo sapiens, UniProt P04035).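 Further: enzyme inhibition assay of HMG-CoA reductase using radiolabeled [14C]HMG-CoA as substrate; in other assays of this panel Not Active means under 50% inhibition at 10 µM.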
T2 sequence (P04035 whole entry): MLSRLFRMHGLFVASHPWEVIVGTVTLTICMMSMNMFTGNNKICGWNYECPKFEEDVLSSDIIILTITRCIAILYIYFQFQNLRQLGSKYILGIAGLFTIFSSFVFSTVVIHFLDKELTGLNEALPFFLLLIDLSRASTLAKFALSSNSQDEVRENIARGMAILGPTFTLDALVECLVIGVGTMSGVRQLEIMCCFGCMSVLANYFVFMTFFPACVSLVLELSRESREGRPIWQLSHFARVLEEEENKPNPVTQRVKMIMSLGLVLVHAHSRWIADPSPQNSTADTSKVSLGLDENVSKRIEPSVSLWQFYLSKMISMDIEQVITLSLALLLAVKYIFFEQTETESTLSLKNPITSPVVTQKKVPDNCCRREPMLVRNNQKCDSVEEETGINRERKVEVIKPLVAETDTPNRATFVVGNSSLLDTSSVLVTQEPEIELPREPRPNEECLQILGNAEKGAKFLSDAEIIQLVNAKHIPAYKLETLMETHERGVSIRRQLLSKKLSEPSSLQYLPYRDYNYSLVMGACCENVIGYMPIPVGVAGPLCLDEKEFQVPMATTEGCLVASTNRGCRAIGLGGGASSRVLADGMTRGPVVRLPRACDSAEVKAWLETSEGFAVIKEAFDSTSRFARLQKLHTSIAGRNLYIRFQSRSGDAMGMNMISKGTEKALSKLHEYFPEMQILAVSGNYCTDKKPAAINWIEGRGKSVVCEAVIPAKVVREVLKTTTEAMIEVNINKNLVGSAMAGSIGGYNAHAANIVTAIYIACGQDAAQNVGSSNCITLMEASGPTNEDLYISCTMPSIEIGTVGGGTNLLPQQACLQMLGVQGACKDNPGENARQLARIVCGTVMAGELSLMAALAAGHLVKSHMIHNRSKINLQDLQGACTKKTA
On the set-up: species or system Escherichia coli.

A short description of experiment [5]: DRUGMATRIX: Sodium/nucleoside co-transporter radioligand binding (ligand: nitrobenzylthioinosine). Format: cell membranes, Cavia porcellus, Dunkin-Hartley, Cerebral cortex, Membrane. The settings on record: Not Active = under 50% inhibition at 10 µM.
The next experiment addresses Adenosine receptor A2a (Homo sapiens, UniProt P29274). The experiment in a line: DRUGMATRIX: Adenosine A2A radioligand binding (ligand: […]). Format: cell membranes, Membrane. The conditions noted are these: hek293; Not Active = under 50% inhibition at 10 µM.
Experiment [6] deals with Matrix metalloproteinase-9 (Homo sapiens, UniProt P14780). The experiment in a line: biochemical. Format: cell-based.

SMILES strings stand for the structures. pIC50: −log10 of the molar value.

Usually pIC50 stands for −log10 of the IC50, conventionally taken in molar units.

Adenosine receptor A2a, sequence (P29274 whole entry): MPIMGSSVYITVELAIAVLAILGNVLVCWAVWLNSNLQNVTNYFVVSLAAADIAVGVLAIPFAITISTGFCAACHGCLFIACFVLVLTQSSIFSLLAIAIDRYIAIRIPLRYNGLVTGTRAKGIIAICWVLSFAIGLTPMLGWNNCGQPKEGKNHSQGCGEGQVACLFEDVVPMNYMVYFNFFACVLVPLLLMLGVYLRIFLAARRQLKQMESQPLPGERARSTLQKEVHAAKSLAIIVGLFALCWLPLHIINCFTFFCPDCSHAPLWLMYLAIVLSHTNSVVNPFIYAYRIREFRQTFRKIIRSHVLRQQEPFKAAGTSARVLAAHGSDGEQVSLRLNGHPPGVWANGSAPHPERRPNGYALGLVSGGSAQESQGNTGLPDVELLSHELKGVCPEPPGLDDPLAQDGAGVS
Matrix metalloproteinase-9, sequence (P14780 whole entry): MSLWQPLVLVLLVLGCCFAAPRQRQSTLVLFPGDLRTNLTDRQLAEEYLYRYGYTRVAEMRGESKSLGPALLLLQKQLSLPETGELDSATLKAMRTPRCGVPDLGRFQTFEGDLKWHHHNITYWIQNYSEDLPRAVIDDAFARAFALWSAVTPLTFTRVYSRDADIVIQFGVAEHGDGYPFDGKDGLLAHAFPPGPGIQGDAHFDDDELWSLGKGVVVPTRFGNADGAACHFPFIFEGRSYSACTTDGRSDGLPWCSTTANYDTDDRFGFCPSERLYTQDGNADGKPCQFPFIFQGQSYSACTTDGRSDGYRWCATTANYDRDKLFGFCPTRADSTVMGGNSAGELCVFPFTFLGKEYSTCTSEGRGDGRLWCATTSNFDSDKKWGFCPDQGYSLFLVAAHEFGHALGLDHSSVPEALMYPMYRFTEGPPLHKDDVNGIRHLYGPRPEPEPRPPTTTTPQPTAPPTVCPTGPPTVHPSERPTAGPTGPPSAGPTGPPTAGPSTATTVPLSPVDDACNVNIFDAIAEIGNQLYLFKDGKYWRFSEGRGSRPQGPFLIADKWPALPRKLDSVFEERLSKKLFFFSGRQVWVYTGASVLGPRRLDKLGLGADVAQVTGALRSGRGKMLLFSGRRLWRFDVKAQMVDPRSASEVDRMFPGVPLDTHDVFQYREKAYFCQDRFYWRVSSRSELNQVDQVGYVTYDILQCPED

For `C=C(C)C1(O)OC(=O)C=C1OC` (centres undefined) [PENICILLIC ACID], the IC50 entry (in experiment [1]; in experiment [2]; at Endothelin-1 receptor; in experiment [3]; in experiment [4]; in experiment [5]) was “Not Active” each time. In addition, the IC50 entry (on Adenosine receptor A2a; in experiment [6]) was “Not Active” each time. The Ki result in experiment [1], in experiment [2], in experiment [3] and in experiment [5] was “Not Active” each time.

As to `CCCC1O[C@@H]2C[C@H]3[C@@H]4CCC5=CC(=O)C=C[C@]5(C)[C@H]4[C@@H](O)C[C@]3(C)[C@]2(C(=O)CO)O1` (some centres undefined) [BUDESONIDE], the IC50 result (in experiment [1]; in experiment [2]; at Endothelin-1 receptor; in experiment [3]; in experiment [4]; in experiment [5]) was “Not Active” in each case. The IC50 result on Adenosine receptor A2a is “Not Active”. In addition, the Ki result in experiment [1], in experiment [2], in experiment [3] and in experiment [5] was “Not Active” in each case. The pIC50 in experiment [6] (read-out: IC50) is 5.70.

For the compound `COCCc1ccc(OCC(O)CNC(C)C)cc1` (centres undefined) [METOPROLOL], the IC50 result (in experiment [1]; in experiment [2]; on Endothelin-1 receptor; in experiment [3]; in experiment [4]; in experiment [5]) was “Not Active” throughout. Also, the IC50 result (on Adenosine receptor A2a; in experiment [6]) was “Not Active” each time. Moreover, the Ki entry in experiment [1], in experiment [2], in experiment [3] and in experiment [5] was “Not Active” each time.

Regarding `CC1CC(OC(=O)C(O)c2ccccc2)CC(C)(C)C1` (centres undefined) [CYCLANDELATE], the IC50 entry (in experiment [1]; in experiment [2]; against Endothelin-1 receptor; in experiment [3]; in experiment [4]; in experiment [5]) was “Not Active” throughout. For the same compound, the IC50 entry (at Adenosine receptor A2a; in experiment [6]) was “Not Active” throughout. Moreover, the Ki result in experiment [1], in experiment [2], in experiment [3] and in experiment [5] was “Not Active” in each case.

As to `C1CCC(C(CC2CCCCN2)C2CCCCC2)CC1` (centres undefined) [PERHEXILINE], the IC50 entry (in experiment [1]; in experiment [2]; against Endothelin-1 receptor; in experiment [3]; in experiment [4]; in experiment [5]) was “Not Active” throughout. Besides, the IC50 result (at Adenosine receptor A2a; in experiment [6]) was “Not Active” in each case. Besides, the Ki result in experiment [1], in experiment [2], in experiment [3] and in experiment [5] was “Not Active” each time.

Turning to `CC(C)[C@H]1C(=O)N2CCC[C@H]2[C@]2(O)O[C@](NC(=O)[C@@H]3C=C4c5cccc6[nH]cc(c56)C[C@H]4N(C)C3)(C(C)C)C(=O)N12` [ERGOCORNINE], the IC50 result (in experiment [1]; in experiment [2]; against Endothelin-1 receptor; in experiment [3]; in experiment [4]; in experiment [5]) was “Not Active” throughout. Besides, the IC50 entry (on Adenosine receptor A2a; in experiment [6]) was “Not Active” throughout. For the same compound, the Ki entry in experiment [1], in experiment [2], in experiment [3] and in experiment [5] was “Not Active” each time.

As to `CC(C)[C@@]1(NC(=O)[C@@H]2C[C@@H]3c4cccc5[nH]cc(c45)C[C@H]3N(C)C2)O[C@@]2(O)[C@@H]3CCCN3C(=O)[C@H](Cc3ccccc3)N2C1=O.CS(=O)(=O)O` [DIHYDROERGOCRISTINE MESYLATE], the IC50 entry (in experiment [1]; in experiment [2]; at Endothelin-1 receptor; in experiment [3]; in experiment [4]; in experiment [5]) was “Not Active” each time. Besides, the IC50 entry (at Adenosine receptor A2a; in experiment [6]) was “Not Active” each time. Moreover, the Ki entry in experiment [1], in experiment [2], in experiment [3] and in experiment [5] was “Not Active” in each case.

These data come from ChEMBL document CHEMBL1909046, “DrugMatrix in vitro pharmacology data”.
